From paper PMC7377239, “Cardiovascular Effects of Polychlorinated Biphenyls and Their Major Metabolites” (Environmental Health Perspectives, 2020)
Structures can show the parent of a compound that is named as a salt. Where two headings read alike, the source gives them in different places.

Legend:
HUVECs [1] = assay: High-content imaging cytotoxicity in HUVECs, 24 h; format: cell-based, human; conditions: Homo sapiens, HUVEC, 24 h, HUVECs; for viability at 0.01 µM / activity at 0.01 µM / viability at 0.1 µM / activity at 0.1 µM / viability at 1 µM / activity at 1 µM / viability at 10 µM / activity at 10 µM / viability at 100 µM / activity at 100 µM: 0.00 µM = 100.00; for viability at 0.1 µM / activity at 0.1 µM: 0.10 µM; for minimal effective concentration: top concentration 100.00 µM
Method in brief: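 Point-of-departure values derive from four-parameter logistic fits of vehicle-normalized imaging phenotypes (Hoechst 33342, MitoTracker Orange, calcein AM). The fits follow 24 h exposure of HUVEC monolayers at 37°C and 5% CO2, with a top tested concentration of 100μM.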

HUVECs [2] = assay: Tube formation (tubulogenesis) assay in HUVECs, 18 h; format: cell-based, human; conditions: Homo sapiens, HUVEC, 18 h, HUVECs; for activity at 0.1 µM: 0.10 µM; for minimal effective concentration: top concentration 100.00 µM
Method in brief: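 HUVECs (passage 1–5) seeded on reduced-growth-factor basement membrane and exposed to compounds overnight at 37°C, 5% CO2, in 2× maintenance medium with 12.5 ng/mL VEGF; 0.5% DMSO vehicle. Calcein AM-stained tube networks imaged and analysed; vehicle-normalized readouts fit to four-parameter logistic, POD set at one SD of vehicle means.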

[3] = 24 hr, read-out: huvec.cyto.24hr
[4] = 24 hr, read-out: huvec.mito.24hr
[5] = 24 hr, read-out: huvec.mitoint.24hr
[6] = 24 hr, read-out: huvec.nma.24hr
[7] = 24 hr, read-out: huvec.cyto.24hr POD
[8] = 24 hr, read-out: huvec.mito.24hr POD
[9] = 24 hr, read-out: huvec.mitoint.24hr POD
[10] = 24 hr, read-out: huvec.nma.24hr POD
[11] = 24 hrs, read-out: huvec.tc.24hrs
[12] = 24 hrs, read-out: huvec.tc.24hrs POD
[13] = 0.00 µM = 100.00, read-out: huvec.mtl.18hr
[14] = 0.00 µM = 100.00, read-out: huvec.tlps.18hr
[15] = 0.00 µM = 100.00, read-out: huvec.tta.18hr
[16] = 0.00 µM = 100.00, read-out: huvec.ttl.18hr

Structure (SMILES): Clc1cccc(-c2cccc(Cl)c2)c1 [PCB11]
- viability at 0.01 µM (HUVECs [1]; [3]): 91.9%
- activity at 0.01 µM (HUVECs [1]; [4]): 90.9%
- activity at 0.01 µM (HUVECs [1]; [5]): 90.3%
- activity at 0.01 µM (HUVECs [1]; [6]): 99.1%
- viability at 0.1 µM (HUVECs [1]; [3]): 99.2%
- activity at 0.1 µM (HUVECs [1]; [4]): 97.8%
- activity at 0.1 µM (HUVECs [1]; [5]): 99.8%
- activity at 0.1 µM (HUVECs [1]; [6]): 99.1%
- viability at 1 µM (HUVECs [1]; [3]): 96.6%
- activity at 1 µM (HUVECs [1]; [4]): 96.2%
- activity at 1 µM (HUVECs [1]; [5]): 95.2%
- activity at 1 µM (HUVECs [1]; [6]): 98.1%
- viability at 10 µM (HUVECs [1]; [3]): 95%
- activity at 10 µM (HUVECs [1]; [4]): 93.9%
- activity at 10 µM (HUVECs [1]; [5]): 89.1%
- activity at 10 µM (HUVECs [1]; [6]): 96.6%
- viability at 100 µM (HUVECs [1]; [3]): 44.7%
- activity at 100 µM (HUVECs [1]; [4]): 22.1%
- activity at 100 µM (HUVECs [1]; [5]): 15.7%
- activity at 100 µM (HUVECs [1]; [6]): 54.9%
- minimal effective concentration (HUVECs [1]; [7]): 11.2 µM
- minimal effective concentration (HUVECs [1]; [8]): 9.68 µM
- minimal effective concentration (HUVECs [1]; [9]): 7.62 µM
- minimal effective concentration (HUVECs [1]; [10]): 9.3 µM
- viability at 0.01 µM (HUVECs [1]; [11]): 91.9%
- viability at 0.1 µM (HUVECs [1]; [11]): 99.2%
- viability at 1 µM (HUVECs [1]; [11]): 96.6%
- viability at 10 µM (HUVECs [1]; [11]): 95%
- viability at 100 µM (HUVECs [1]; [11]): 44.9%
- minimal effective concentration (HUVECs [1]; [12]): 11.2 µM
- activity at 0.01 µM (HUVECs [2]; [13]): 107%
- activity at 0.01 µM (HUVECs [2]; [14]): 122%
- activity at 0.01 µM (HUVECs [2]; [15]): 138%
- activity at 0.01 µM (HUVECs [2]; [16]): 122%
- activity at 0.1 µM (HUVECs [2]; [13]): 113%
- activity at 0.1 µM (HUVECs [2]; [14]): 126%
- activity at 0.1 µM (HUVECs [2]; [15]): 133%
- activity at 0.1 µM (HUVECs [2]; [16]): 124%
- activity at 1 µM (HUVECs [2]; [13]): 109%
- activity at 1 µM (HUVECs [2]; [14]): 130%
- activity at 1 µM (HUVECs [2]; [15]): 157%
- activity at 1 µM (HUVECs [2]; [16]): 140%
- activity at 10 µM (HUVECs [2]; [13]): 97.8%
- activity at 10 µM (HUVECs [2]; [14]): 94.6%
- activity at 10 µM (HUVECs [2]; [15]): 86.1%
- activity at 10 µM (HUVECs [2]; [16]): 87.2%
- activity at 100 µM (HUVECs [2]; [13]): 81.4%
- activity at 100 µM (HUVECs [2]; [14]): 77.5%
- activity at 100 µM (HUVECs [2]; [15]): 85%
- activity at 100 µM (HUVECs [2]; [16]): 78.8%
- minimal effective concentration (HUVECs [2]; read-out: huvec.mtl.18hr POD): 100 µM
- minimal effective concentration (HUVECs [2]; read-out: huvec.tlps.18hr POD): 41.8 µM
- minimal effective concentration (HUVECs [2]; read-out: huvec.tta.18hr POD): 100 µM
- minimal effective concentration (HUVECs [2]; read-out: huvec.ttl.18hr POD): 100 µM

Structure (SMILES): O=S(=O)(O)Oc1ccc(-c2cccc(Cl)c2)cc1Cl [4-yl PCB 11 sulfate]
- viability at 0.01 µM (HUVECs [1]; [3]): 97.3%
- activity at 0.01 µM (HUVECs [1]; [4]): 95.5%
- activity at 0.01 µM (HUVECs [1]; [5]): 95.8%
- activity at 0.01 µM (HUVECs [1]; [6]): 97.3%
- viability at 0.1 µM (HUVECs [1]; [3]): 86.8%
- activity at 0.1 µM (HUVECs [1]; [4]): 85.9%
- activity at 0.1 µM (HUVECs [1]; [5]): 118%
- activity at 0.1 µM (HUVECs [1]; [6]): 104%
- viability at 1 µM (HUVECs [1]; [3]): 97.8%
- activity at 1 µM (HUVECs [1]; [4]): 96.6%
- activity at 1 µM (HUVECs [1]; [5]): 99.3%
- activity at 1 µM (HUVECs [1]; [6]): 97%
- viability at 10 µM (HUVECs [1]; [3]): 108%
- activity at 10 µM (HUVECs [1]; [4]): 107%
- activity at 10 µM (HUVECs [1]; [5]): 93.5%
- activity at 10 µM (HUVECs [1]; [6]): 93.9%
- viability at 100 µM (HUVECs [1]; [3]): 58.3%
- activity at 100 µM (HUVECs [1]; [4]): 58.9%
- activity at 100 µM (HUVECs [1]; [5]): 54.2%
- activity at 100 µM (HUVECs [1]; [6]): 75.6%
- minimal effective concentration (HUVECs [1]; [7]): 48.8 µM
- minimal effective concentration (HUVECs [1]; [8]): 45.1 µM
- minimal effective concentration (HUVECs [1]; [9]): 10.8 µM
- minimal effective concentration (HUVECs [1]; [10]): 2.98 µM
- viability at 0.01 µM (HUVECs [1]; [11]): 97.3%
- viability at 0.1 µM (HUVECs [1]; [11]): 86.8%
- viability at 1 µM (HUVECs [1]; [11]): 97.8%
- viability at 10 µM (HUVECs [1]; [11]): 108%
- viability at 100 µM (HUVECs [1]; [11]): 59.1%
- minimal effective concentration (HUVECs [1]; [12]): 48.8 µM
- activity at 0.01 µM (HUVECs [2]; [13]): 96.8%
- activity at 0.01 µM (HUVECs [2]; [14]): 110%
- activity at 0.01 µM (HUVECs [2]; [15]): 98.3%
- activity at 0.01 µM (HUVECs [2]; [16]): 87.1%
- activity at 0.1 µM (HUVECs [2]; [13]): 112%
- activity at 0.1 µM (HUVECs [2]; [14]): 133%
- activity at 0.1 µM (HUVECs [2]; [15]): 109%
- activity at 0.1 µM (HUVECs [2]; [16]): 98.7%
- activity at 1 µM (HUVECs [2]; [13]): 108%
- activity at 1 µM (HUVECs [2]; [14]): 110%
- activity at 1 µM (HUVECs [2]; [15]): 123%
- activity at 1 µM (HUVECs [2]; [16]): 113%
- activity at 10 µM (HUVECs [2]; [13]): 95%
- activity at 10 µM (HUVECs [2]; [14]): 103%
- activity at 10 µM (HUVECs [2]; [15]): 84.6%
- activity at 10 µM (HUVECs [2]; [16]): 77%
- activity at 100 µM (HUVECs [2]; [13]): 52.2%
- activity at 100 µM (HUVECs [2]; [14]): 35.8%
- activity at 100 µM (HUVECs [2]; [15]): 50.9%
- activity at 100 µM (HUVECs [2]; [16]): 56.1%
- minimal effective concentration (HUVECs [2]; read-out: huvec.mtl.18hr POD): 14.3 µM
- minimal effective concentration (HUVECs [2]; read-out: huvec.tlps.18hr POD): 27.2 µM
- minimal effective concentration (HUVECs [2]; read-out: huvec.tta.18hr POD): 100 µM
- minimal effective concentration (HUVECs [2]; read-out: huvec.ttl.18hr POD): 100 µM
